Assay results published in patent publication US10670605B2, “Cysteine reactive probes and uses thereof” (The Scripps Research Institute, priority 2015, dated 2020).
Each block holds one molecule with its values, some of them ahead of it.

Legend:
Assay in all cases: Competitive isoTOP-ABPP, cell lysates
Type in all cases: binding
RELB C109 (Q01201) = biological target: T1, RELB C109 (Q01201) (Homo sapiens, UniProt Q01201); conditions: for R value (DMSO/fragment): 500 μM
T1 sequence (Q01201 1-579): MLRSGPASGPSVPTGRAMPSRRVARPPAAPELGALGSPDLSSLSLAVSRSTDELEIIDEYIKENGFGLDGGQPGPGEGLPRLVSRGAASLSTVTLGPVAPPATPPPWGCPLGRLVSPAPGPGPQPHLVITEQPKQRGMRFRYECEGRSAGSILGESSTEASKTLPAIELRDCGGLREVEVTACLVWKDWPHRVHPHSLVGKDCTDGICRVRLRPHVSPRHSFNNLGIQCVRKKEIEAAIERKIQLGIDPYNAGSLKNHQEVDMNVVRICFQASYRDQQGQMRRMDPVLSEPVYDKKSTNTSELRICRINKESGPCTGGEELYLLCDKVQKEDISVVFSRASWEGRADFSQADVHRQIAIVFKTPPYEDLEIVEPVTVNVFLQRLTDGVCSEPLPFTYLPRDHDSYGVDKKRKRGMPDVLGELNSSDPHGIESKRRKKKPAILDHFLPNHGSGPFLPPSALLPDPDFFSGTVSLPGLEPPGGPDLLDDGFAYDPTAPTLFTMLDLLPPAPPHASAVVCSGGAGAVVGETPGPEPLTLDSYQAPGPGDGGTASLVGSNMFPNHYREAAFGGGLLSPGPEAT

CASP2 C370 (P42575) = biological target: T2, CASP2 C370 (P42575) (Homo sapiens, UniProt P42575); conditions: for isoTOP-ABPP reactivity ratio, P42575_C370: 500 μm, in-vitro_ramos
T2 sequence (P42575 1-452): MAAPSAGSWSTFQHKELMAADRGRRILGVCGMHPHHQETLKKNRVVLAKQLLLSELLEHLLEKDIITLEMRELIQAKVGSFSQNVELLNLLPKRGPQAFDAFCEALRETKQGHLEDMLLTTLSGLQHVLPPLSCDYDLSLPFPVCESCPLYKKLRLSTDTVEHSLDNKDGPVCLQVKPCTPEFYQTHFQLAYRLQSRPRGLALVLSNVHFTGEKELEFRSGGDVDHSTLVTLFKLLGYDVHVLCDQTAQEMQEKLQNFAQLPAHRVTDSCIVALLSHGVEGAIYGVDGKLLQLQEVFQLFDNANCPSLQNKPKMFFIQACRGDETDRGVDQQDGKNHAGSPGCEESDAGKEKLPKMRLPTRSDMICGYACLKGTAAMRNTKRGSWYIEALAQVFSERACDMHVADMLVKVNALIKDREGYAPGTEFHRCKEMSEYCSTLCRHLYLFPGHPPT

PELI1 C282 (Q96FA3) = biological target: T3, PELI1 C282 (Q96FA3) (Homo sapiens, UniProt Q96FA3); conditions: for isoTOP-ABPP ratio (reactivity profile), Q96FA3_C282: 500 μm in-vitro ramos; for isoTOP-ABPP reactivity ratio, Q96FA3_C282 / isoTOP-ABPP reactivity profile ratio, Q96FA3_C282: 500 μm, in-vitro_ramos
T3 sequence (Q96FA3 1-418): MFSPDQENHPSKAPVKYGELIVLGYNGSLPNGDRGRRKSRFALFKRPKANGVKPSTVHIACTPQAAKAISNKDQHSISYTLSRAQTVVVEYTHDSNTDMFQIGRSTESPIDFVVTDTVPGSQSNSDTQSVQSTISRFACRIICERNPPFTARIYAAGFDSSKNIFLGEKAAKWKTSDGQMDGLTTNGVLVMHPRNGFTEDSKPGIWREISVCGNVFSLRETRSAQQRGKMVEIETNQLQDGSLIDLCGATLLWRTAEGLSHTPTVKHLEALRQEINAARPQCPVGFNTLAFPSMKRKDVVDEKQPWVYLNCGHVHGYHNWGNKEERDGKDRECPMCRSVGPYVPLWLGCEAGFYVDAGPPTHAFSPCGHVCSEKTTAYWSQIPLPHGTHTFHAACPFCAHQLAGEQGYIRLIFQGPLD

Structure (SMILES): COc1ccc2c(c1)CCCN2C(=O)CCl [compound 2]
- R value (DMSO/fragment) (RELB C109 (Q01201); in vitro, MDA-MB-231): 20.0
- R value (DMSO/fragment) (RELB C109 (Q01201); invitro, ramos): 20.0

Structure (SMILES): O=C(CCl)N1CCN(S(=O)(=O)c2ccccc2F)CC1 [compound 10]
- isoTOP-ABPP ratio, P42575_C370 (CASP2 C370 (P42575); 500 μM, invitro, ramos): 1.2

Structure (SMILES): CC(Br)C(=O)Nc1cc(C(F)(F)F)cc(C(F)(F)F)c1 (stereo not drawn) [compound 24]
- isoTOP-ABPP ratio (reactivity profile), P42575_C370 (CASP2 C370 (P42575); 500 μm in-vitro ramos): 2.2
- isoTOP-ABPP ratio (reactivity profile), Q01201_C109 (RELB C109 (Q01201); 500 μm in-vitro ramos): 1.5

Structure (SMILES): O=C(/C=C/c1ccccc1)Nc1cc(C(F)(F)F)cc(C(F)(F)F)c1 [compound 26]
- isoTOP-ABPP ratio (reactivity profile), Q96FA3_C282 (PELI1 C282 (Q96FA3)): 0.5

Structure (SMILES): COc1ccccc1OCCNC(=O)CCl [compound 28]
- isoTOP-ABPP ratio (reactivity profile), Q96FA3_C282 (PELI1 C282 (Q96FA3)): 0.7
- isoTOP-ABPP ratio (reactivity profile), Q01201_C109 (RELB C109 (Q01201); 500 μm in-vitro ramos): 1.1

Structure (SMILES): C=CC(=O)N1CCC(c2noc3ccc(F)cc23)CC1 [compound 37]
- isoTOP-ABPP reactivity ratio, P42575_C370 (CASP2 C370 (P42575)): 0.7

Structure (SMILES): C=CC(=O)Nc1cc(F)c(N2CCN(C(=O)OC(C)(C)C)CC2)c(F)c1 [compound 38]
- isoTOP-ABPP reactivity ratio, Q96FA3_C282 (PELI1 C282 (Q96FA3)): 7.0

Structure (SMILES): Cc1ccc(C=C(C#N)C(=O)NCCN2CCOCC2)cc1 [compound 41]
- isoTOP-ABPP reactivity ratio, P42575_C370 (CASP2 C370 (P42575)): 1.4

Continued, values first:

- R value (DMSO/fragment) (CASP2 C370 (P42575); 500 μM, invitro, ramos): 7.4
Structure (SMILES): O=C(CCl)Nc1cc(C(F)(F)F)cc(C(F)(F)F)c1 [compound 3]

- isoTOP-ABPP ratio, P42575_C370 (CASP2 C370 (P42575); 500 μM, invitro, ramos): 6.0
Structure (SMILES): Cn1cc(S(=O)(=O)N2CCOCC2)cc1C(=O)NC(=O)CCl [compound 11]

- isoTOP-ABPP ratio (reactivity profile), P42575_C370 (CASP2 C370 (P42575); 500 μm in-vitro ramos): 2.1
- isoTOP-ABPP ratio (reactivity profile), Q01201_C109 (RELB C109 (Q01201); 500 μm in-vitro ramos): 1.3
Structure (SMILES): N#C/C(=C\c1cc(C(F)(F)F)cc(C(F)(F)F)c1)C(N)=O [compound 23]

- isoTOP-ABPP ratio (reactivity profile), P42575_C370 (CASP2 C370 (P42575); 500 μm in-vitro ramos_231): 0.9
- isoTOP-ABPP ratio (reactivity profile), Q01201_C109 (RELB C109 (Q01201); 500 μm in-vitro ramos_231): 0.8
Structure (SMILES): CC(C)CCOCCNC(=O)CCl [compound 27]

- isoTOP-ABPP reactivity ratio, Q96FA3_C282 (PELI1 C282 (Q96FA3)): 1.5
- isoTOP-ABPP reactivity ratio, P42575_C370 (CASP2 C370 (P42575)): 4.1
Structure (SMILES): CCN(CC)c1ccc(S(N)(=O)=O)cc1NC(=O)CCl [compound 30]

- isoTOP-ABPP reactivity ratio, Q01201_C109 (RELB C109 (Q01201); 500 μm, in-vitro_ramos): 20.0
Structure (SMILES): CC(C)(C)c1cc(NC(=O)CCl)on1 [compound 32]

- isoTOP-ABPP reactivity ratio, P42575_C370 (CASP2 C370 (P42575)): 2.7
Structure (SMILES): C=CC(=O)Nc1cc(C)c(Br)cc1C [compound 40]

- isoTOP-ABPP reactivity profile ratio, Q96FA3_C282 (PELI1 C282 (Q96FA3)): 1.2
Structure (SMILES): N#CC(=Cc1ccc(-c2ccccc2Cl)o1)C(N)=O [compound 42]

- isoTOP-ABPP reactivity profile ratio, Q01201_C109 (RELB C109 (Q01201); 500 μm, in-vitro_ramos): 1.6
Structure (SMILES): O=C(CCl)Nc1cccc2ncccc12 [compound 51]

- isoTOP-ABPP reactivity profile ratio, Q96FA3_C282 (PELI1 C282 (Q96FA3)): 20.0
Structure (SMILES): O=C(CCl)Nc1ccc(-c2ccccc2)cc1 [compound 52]
